Assay results: PubChem BioAssay (NCI)
Several values for one entry are separate records, joined by “and”; a condition that tells them apart may be missing. Identical values can stand only once.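 In this assay, cells in 96-well plates receive the compound at five concentrations for 48 hours. Endpoints are linearly interpolated between the surrounding concentrations. The concentration for 50% growth inhibition is given as GI50. TGI: concentration producing complete growth inhibition.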

How the values were obtained:
Assay in all cases: growth of human tumour cells (NCI), 48 h
[1] = tested on: 786-0 renal
[2] = tested on: ACHN renal
[3] = tested on: HCT-116 colon
[4] = tested on: HL-60(TB) leukemia
[5] = tested on: MCF7 breast
[6] = tested on: NCI-H23 lung
[7] = tested on: NCI-H522 lung
[8] = tested on: OVCAR-5 ovarian
[9] = tested on: RXF 393 renal
[10] = tested on: SNB-19 CNS

Structure (SMILES) | TGI [1] | TGI [2] | TGI [3] | TGI [4] | TGI [5] | TGI [6] | TGI [7] | TGI [8] | TGI [9] | TGI [10] | GI50 [1] | GI50 [2] | GI50 [3] | GI50 [4] | GI50 [5] | GI50 [6] | GI50 [7] | GI50 [8] | GI50 [9] | GI50 [10]
O=P1(O)c2ccccc2CSCc2ccccc21 | > 100 µM | > 100 µM | > 100 µM | > 100 µM | > 100 µM | > 100 µM | > 100 µM | > 100 µM | > 100 µM | > 100 µM |  |  |  |  |  |  |  |  |  | 
Nc1nc(N)c2cc(Sc3ccc(Cl)cc3)ccc2n1 | 2.04 µM | 16.4 µM | 1.39 µM | 2.47 µM | 2.79 µM | 15.6 µM | 3.87 µM | 17.5 µM | 7.78 µM | 20.8 µM | 0.582 µM | 0.666 µM | 0.327 µM | 0.6 µM | 1.16 µM | 1.38 µM | 1.35 µM | 2.05 µM | 1.03 µM | 3.71 µM
COc1ccc(-c2nc(Nc3ccc(F)cc3)nc(Nc3ccc4c(c3)nc(C)n4Cc3ccccc3)n2)cc1 | 11.2 µM | > 100 µM | > 100 µM | > 100 µM | > 100 µM | > 100 µM | > 100 µM | 68.9 µM | 9.54 µM | > 100 µM | 2.68 µM | 3.13 µM | 3 µM | 4.54 µM | 3.14 µM | 6.54 µM | 5.92 µM | 3.26 µM | 2.53 µM | 6.9 µM
Nc1ncnc2occ(-c3ccc(NC(=O)Nc4cc(C(F)(F)F)ccc4F)cc3)c12 | 16.4 µM and 10.3 µM | 18.8 µM and 16.4 µM | 16.8 µM and 9.61 µM | 16 µM and 14.7 µM | 17.7 µM and 12.6 µM | 12.9 µM and 6.86 µM | 11.2 µM and 5.81 µM | 16.2 µM and 13.7 µM | 7.06 µM and 3.92 µM | 23.3 µM and 19.5 µM | 6.63 µM and 4.43 µM | 4.17 µM and 2.9 µM | 5.2 µM and 1.51 µM | 6.88 µM and 6.16 µM | 2.37 µM and 1.16 µM | 4.62 µM and 2.09 µM | 5.48 µM and 1.91 µM | 6.44 µM and 5.95 µM | 2.95 µM and 1.11 µM | 8.29 µM and 5.71 µM
Fc1ccc(-c2nn3c(COc4ccccc4Cl)nnc3s2)cc1Oc1ccccc1 | 46.7 µM | 65.3 µM | 66.1 µM |  | > 100 µM | 43.9 µM | > 100 µM | 92.7 µM | > 100 µM | 57.6 µM | 21.3 µM | 25 µM | 23.2 µM |  | 52.5 µM | 21.2 µM | 29.6 µM | 33.2 µM | > 100 µM | 23.4 µM
CC12OC(C(=O)C13CC3)C1C(=O)c3cccc(O)c3C(=O)C12 (stereo not drawn) | 19.2 µM | > 39.1 µM | 6.42 µM | 0.539 µM | > 57.9 µM | 22.7 µM | > 76.9 µM | > 66.3 µM | 9.3 µM | 40.1 µM | 6.45 µM | 2.95 µM | 4.31 µM |  | 14.3 µM | 7.55 µM | 8.84 µM | 24.5 µM | 1.43 µM | 10.4 µM
CCOC(=O)Cc1csc(Nc2nc(O)c(C3=c4ccccc4=NC3=O)s2)n1 | 43.2 µM | 47.3 µM | 26.5 µM |  | > 100 µM | > 100 µM | 97.6 µM | > 100 µM | > 100 µM | > 100 µM | 21.7 µM | 23 µM | 13.6 µM |  | 85.5 µM | 56 µM | 27.2 µM | 43.6 µM | 41.3 µM | 38.4 µM
O=C(O)c1cc(C(=O)C(=O)c2cc(C(=O)O)c(O)c3ccccc23)c2ccccc2c1O | > 100 µM | > 100 µM | > 100 µM |  | > 100 µM | > 100 µM | > 100 µM | > 100 µM | > 100 µM | > 100 µM |  |  |  |  |  |  |  |  |  | 
C#CCOCCCC(=O)O | > 100 µM | > 100 µM | > 100 µM | > 100 µM | > 100 µM | > 100 µM |  | > 100 µM | > 100 µM | > 100 µM |  |  |  |  |  |  |  |  |  | 
ClCCN(CCCl)c1ccc(OCc2ccccc2)cc1 | 22.1 µM | > 100 µM | 26.9 µM | 23.7 µM | 35.5 µM | 36.6 µM | 21.9 µM | > 100 µM |  | > 100 µM | 2.97 µM | 2.1 µM | 6.81 µM | 1.84 µM | 3.6 µM | 4.88 µM | 4.64 µM | 29 µM |  | 6.15 µM
CSc1nc(SC)c2c(C)cn(Cc3ccccc3)c2n1 | > 100 µM | > 100 µM | > 100 µM | > 100 µM | > 100 µM | > 100 µM | > 100 µM | > 100 µM |  | > 100 µM |  |  |  |  |  |  |  |  |  | 
Cc1ccc([I+]c2ccc(C)cc2)cc1 | > 100 µM | > 100 µM | > 100 µM |  | > 100 µM | 93.4 µM | > 100 µM | > 100 µM | > 100 µM | > 100 µM | 28.8 µM | 14.9 µM | 0.821 µM |  | 4.01 µM | 2.03 µM | 12.3 µM | 39.2 µM | 36.6 µM | 16.1 µM
